Settings: 101.33 kPa, Liquid; for mass density: Vibrating tube method; for speed of sound: Pulse-echo method

CCC(=O)[O-].C[NH2+]CCO [2-hydroxy-N-methylethanaminium propionate]
Settings	mass density [kg/m3]	speed of sound [m/s]	viscosity [mPa·s]
293.15 K	1074.5	–	–
293.4 K	1074.34	1704.1	–
293.65 K	1074.17	1703.4	–
293.9 K	1074.01	1702.6	–
294.15 K	1073.84	1701.9	–
294.4 K	1073.68	1701.1	–
294.65 K	1073.51	1700.4	–
294.9 K	1073.35	1699.7	–
295.15 K	1073.18	1698.9	–
295.4 K	1073.02	1698.2	–
295.65 K	1072.86	1697.4	256.14
295.9 K	1072.7	1696.7	–
296.15 K	1072.54	1695.9	–
296.4 K	1072.38	1695.2	–
296.65 K	1072.22	1694.5	–
296.9 K	1072.07	1693.7	–
297.15 K	1071.9	1693	–
297.4 K	1071.74	1692.2	–
297.65 K	1071.59	1691.5	–
297.9 K	1071.43	1690.7	–
298.15 K	1071.27	1690	215.06
298.4 K	1071.11	1689.3	–
298.65 K	1070.95	1688.5	–
298.9 K	1070.79	1687.8	–
299.15 K	1070.63	1687	–
299.4 K	1070.47	1686.3	–
299.65 K	1070.31	1685.5	–
299.9 K	1070.15	1684.8	–
300.15 K	1069.99	1684.1	–
300.4 K	1069.83	1683.3	–
300.65 K	1069.67	1682.6	182.88
300.9 K	1069.51	1681.8	–
301.15 K	1069.35	1681.1	–
301.4 K	1069.18	1680.3	–
301.65 K	1069.02	1679.6	–
301.9 K	1068.86	1678.9	–
302.15 K	1068.69	1678.1	–
302.4 K	1068.53	1677.4	–
302.65 K	1068.38	1676.7	–
302.9 K	1068.21	1675.9	–
303.15 K	1068.05	1675.2	158.24
303.4 K	1067.89	1674.5	–
303.65 K	1067.73	1673.7	–
303.9 K	1067.57	1673	–
304.15 K	1067.4	1672.3	–
304.4 K	1067.24	1671.5	–
304.65 K	1067.08	1670.8	–
304.91 K	1066.92	1670.1	–
305.15 K	1066.76	1669.3	140.88
305.4 K	1066.59	1668.6	–
305.65 K	1066.42	1667.9	–
305.9 K	1066.27	1667.1	–
306.15 K	1066.1	1666.4	–
306.4 K	1065.94	1665.7	–
306.65 K	1065.77	1664.9	–
306.9 K	1065.61	1664.2	–
307.15 K	1065.45	1663.5	–
307.4 K	1065.28	1662.7	–
307.65 K	1065.12	1662	–
307.9 K	1064.95	1661.2	–

Source: the NIST ThermoML archive (doi:10.1021/je900550v)
